Laboratory results taken from ChEMBL document CHEMBL1201862, “PubChem BioAssay data set” (2004).
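Growth conditions: 96-well plates. Treatment: test compound, 48 hours, 5 concentrations. Analysis: linear interpolation between bracketing concentrations; unreached endpoints set to highest concentration. GI50 is the concentration that inhibits growth by half.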 Calls of active or inactive are those of the source. Rule as the data show it: active = GI50 up to about 1.1 µM and inactive = higher.

Key:
Test in all cases: NCI-60 cell line screen, 48 h
[1] = system: NCI-H522
[2] = system: RXF 393
[3] = system: HCC 2998
[4] = system: HT-29
[5] = system: OVCAR-3
[6] = system: IGROV-1
[7] = system: SK-MEL-5
[8] = system: ACHN
[9] = system: K562
[10] = system: SK-MEL-28
[11] = system: EKVX
[12] = system: NCI-H226
[13] = system: HCT-15
[14] = system: SN12C
[15] = system: UACC-257
[16] = system: CAKI-1
[17] = system: HCT-116
[18] = system: HOP-92
[19] = system: SR

With `CCO/C(CCn1[nH]c(=O)c(Cl)c(Cl)c1=O)=N\NC(=O)C(=O)NN` the GI50 [1] was > 100 µM (inactive), the GI50 [2] was > 100 µM (inactive) and the GI50 [3] was > 100 µM (inactive). The GI50 [4] was > 100 µM (inactive), the GI50 [5] was > 100 µM (inactive) and the GI50 [6] was > 100 µM (inactive). The GI50 [7] was > 100 µM (inactive), the GI50 [8] was > 100 µM (inactive) and the GI50 [9] was > 100 µM (inactive). For the same compound, the GI50 [10] was > 100 µM (inactive), the GI50 [11] was > 100 µM (inactive) and the GI50 [12] was > 100 µM (inactive). For the same compound, the GI50 [13] was over 100 µM, the GI50 [14] was > 100 µM (inactive) and the GI50 [15] was > 100 µM (inactive). The GI50 [16] was > 100 µM (inactive).
In the case of `O=C(/C=C/c1ccccc1Cl)c1ccc(Cl)cc1Cl`, the GI50 [17] was 8.47 µM (inactive), the GI50 [18] was 21 µM (inactive) and the GI50 [3] was 19.1 µM (inactive). For the same compound, the GI50 [4] was 14.3 µM (inactive), the GI50 [5] was 17.7 µM (inactive) and the GI50 [6] was 14.5 µM (inactive). For the same compound, the GI50 [7] was 15.3 µM (inactive), the GI50 [8] was 18.1 µM (inactive) and the GI50 [9] was 3.02 µM (inactive). For the same compound, the GI50 [10] was 11.6 µM (inactive), the GI50 [11] was 18.9 µM (inactive) and the GI50 [12] was 15.7 µM (inactive). For the same compound, the GI50 [13] was 11.7 µM, the GI50 [14] was 17.9 µM (inactive) and the GI50 [15] was 15.9 µM (inactive). For the same compound, the GI50 [16] was 14.4 µM (inactive).
For `Cc1cc2c(C)nn(Cc3ccccc3)c2c(C(N)=O)c1C`, the GI50 [17] was > 100 µM (inactive), the GI50 [1] was 99.1 µM (inactive) and the GI50 [18] was > 100 µM (inactive). The GI50 [3] was > 100 µM (inactive), the GI50 [4] was > 100 µM (inactive) and the GI50 [5] was > 100 µM (inactive). The GI50 [6] was > 100 µM (inactive), the GI50 [7] was > 100 µM (inactive) and the GI50 [8] was > 100 µM (inactive). For the same compound, the GI50 [9] was > 100 µM (inactive), the GI50 [10] was > 100 µM (inactive) and the GI50 [11] was > 100 µM (inactive). The GI50 [13] was over 100 µM, the GI50 [14] was > 100 µM (inactive) and the GI50 [15] was > 100 µM (inactive).
In the case of `Cc1cc(C)nc(NS(=O)(=O)c2ccc(Nc3c4ccc(Cl)cc4nc4c(C(=O)Nc5ccc(S(=O)(=O)N=C(N)N)cc5)cccc34)cc2)n1`, the GI50 [17] was 54.3 µM (inactive), the GI50 [1] was 34.4 µM (inactive) and the GI50 [2] was 29.4 µM (inactive). The GI50 [3] was > 100 µM (inactive), the GI50 [4] was > 100 µM (inactive) and the GI50 [5] was 96.6 µM (inactive). For the same compound, the GI50 [8] was 96.6 µM (inactive), the GI50 [9] was 73.5 µM (inactive) and the GI50 [10] was 77.6 µM (inactive). For the same compound, the GI50 [11] was > 100 µM (inactive), the GI50 [13] was over 100 µM and the GI50 [14] was > 100 µM (inactive). The GI50 [15] was > 100 µM (inactive).
With `COC(=O)C(=O)C(C(=O)C(=O)Nc1ccc(C)cc1)c1nc2ccc(C(=O)c3ccccc3)cc2nc1O` (stereo not drawn) the GI50 [17] was > 100 µM (inactive), the GI50 [1] was 30.5 µM (inactive) and the GI50 [2] was 55 µM (inactive). For the same compound, the GI50 [18] was > 100 µM (inactive), the GI50 [3] was 92.3 µM (inactive) and the GI50 [4] was 7.83 µM (inactive). The GI50 [5] was > 100 µM (inactive), the GI50 [6] was > 100 µM (inactive) and the GI50 [7] was 73.1 µM (inactive). The GI50 [8] was > 100 µM (inactive), the GI50 [9] was 42.2 µM (inactive) and the GI50 [10] was > 100 µM (inactive). For the same compound, the GI50 [11] was > 100 µM (inactive), the GI50 [12] was 95.5 µM (inactive) and the GI50 [13] was 52.2 µM. For the same compound, the GI50 [14] was > 100 µM (inactive), the GI50 [15] was > 100 µM (inactive) and the GI50 [16] was 39.4 µM (inactive).
In the case of `COc1cc2c(cc1OC)NC(=O)NC(Cc1ccc3c(c1)OCO3)CC2` (stereo not drawn), the GI50 [1] was 29 µM (inactive), the GI50 [2] was > 100 µM (inactive) and the GI50 [18] was 30.2 µM (inactive). The GI50 [3] was > 100 µM (inactive), the GI50 [5] was > 100 µM (inactive) and the GI50 [6] was > 100 µM (inactive). The GI50 [7] was > 100 µM (inactive), the GI50 [8] was > 100 µM (inactive) and the GI50 [9] was > 100 µM (inactive). For the same compound, the GI50 [10] was > 100 µM (inactive), the GI50 [11] was > 100 µM (inactive) and the GI50 [13] was over 100 µM. For the same compound, the GI50 [14] was > 100 µM (inactive), the GI50 [15] was > 100 µM (inactive) and the GI50 [16] was > 100 µM (inactive).
For `COc1ccc(CC2(Cc3ccc(OC)cc3)CCOC2=O)cc1`, the GI50 [17] was > 100 µM (inactive), the GI50 [1] was 17.7 µM (inactive) and the GI50 [18] was 40.6 µM (inactive). For the same compound, the GI50 [4] was > 100 µM (inactive), the GI50 [5] was > 100 µM (inactive) and the GI50 [6] was > 100 µM (inactive). The GI50 [8] was 94.8 µM (inactive), the GI50 [9] was > 100 µM (inactive) and the GI50 [10] was > 100 µM (inactive). For the same compound, the GI50 [11] was 44.2 µM (inactive), the GI50 [12] was > 100 µM (inactive) and the GI50 [19] was > 100 µM (inactive). The GI50 [14] was > 100 µM (inactive), the GI50 [15] was > 100 µM (inactive) and the GI50 [16] was 67 µM (inactive).
`C#CCNC(=O)ON1C(=O)CCC1=O` was tested, and the GI50 [17] was > 100 µM (inactive), the GI50 [1] was > 100 µM (inactive) and the GI50 [2] was > 100 µM (inactive). For the same compound, the GI50 [4] was > 100 µM (inactive), the GI50 [5] was > 100 µM (inactive) and the GI50 [6] was > 100 µM (inactive). The GI50 [8] was > 100 µM (inactive), the GI50 [9] was > 100 µM (inactive) and the GI50 [10] was > 100 µM (inactive). For the same compound, the GI50 [11] was > 100 µM (inactive), the GI50 [13] was over 100 µM and the GI50 [14] was > 100 µM (inactive). The GI50 [15] was > 100 µM (inactive).
In the case of `O=C1c2c(n(Cc3ccccc3)c(=O)n2Cc2ccccc2)C(=O)N1Cc1ccccc1`, the GI50 [17] was 40.3 µM (inactive), the GI50 [1] was 56.1 µM (inactive) and the GI50 [2] was 37.9 µM (inactive). For the same compound, the GI50 [18] was > 100 µM (inactive), the GI50 [3] was 61.4 µM (inactive) and the GI50 [4] was 82.2 µM (inactive). For the same compound, the GI50 [5] was 49.2 µM (inactive), the GI50 [6] was 93.5 µM (inactive) and the GI50 [7] was 50.5 µM (inactive). For the same compound, the GI50 [8] was 91.6 µM (inactive), the GI50 [9] was 58.1 µM (inactive) and the GI50 [10] was > 100 µM (inactive). The GI50 [11] was 66.8 µM (inactive), the GI50 [12] was 92.7 µM (inactive) and the GI50 [13] was 47.8 µM. The GI50 [14] was 65.5 µM (inactive), the GI50 [15] was 67.6 µM (inactive) and the GI50 [16] was 65.8 µM (inactive).
In the case of `Cc1nc(-c2nc(C)c(C(=O)/C=C/c3ccc([N+](=O)[O-])cc3)s2)sc1C(=O)/C=C/c1ccc([N+](=O)[O-])cc1`, the GI50 [17] was > 100 µM (inactive), the GI50 [2] was > 100 µM (inactive) and the GI50 [18] was > 100 µM (inactive). For the same compound, the GI50 [3] was > 100 µM (inactive), the GI50 [4] was > 100 µM (inactive) and the GI50 [5] was > 100 µM (inactive). For the same compound, the GI50 [6] was > 100 µM (inactive), the GI50 [7] was > 100 µM (inactive) and the GI50 [8] was > 100 µM (inactive). The GI50 [9] was > 100 µM (inactive), the GI50 [10] was > 100 µM (inactive) and the GI50 [11] was > 100 µM (inactive). The GI50 [12] was > 100 µM (inactive), the GI50 [13] was over 100 µM and the GI50 [14] was > 100 µM (inactive). For the same compound, the GI50 [15] was > 100 µM (inactive) and the GI50 [16] was > 100 µM (inactive).
With `CC12Oc3ccc4ccccc4c3C1c1c(ccc3ccccc13)O2` (stereo not drawn) the GI50 [17] was > 100 µM (inactive), the GI50 [1] was > 100 µM (inactive) and the GI50 [2] was > 100 µM (inactive). The GI50 [18] was 17.1 µM (inactive), the GI50 [4] was > 100 µM (inactive) and the GI50 [5] was > 100 µM (inactive). For the same compound, the GI50 [6] was > 100 µM (inactive), the GI50 [7] was > 100 µM (inactive) and the GI50 [8] was > 100 µM (inactive). The GI50 [9] was > 100 µM (inactive), the GI50 [10] was > 100 µM (inactive) and the GI50 [11] was > 100 µM (inactive). The GI50 [12] was > 100 µM (inactive), the GI50 [19] was > 100 µM (inactive) and the GI50 [14] was > 100 µM (inactive). For the same compound, the GI50 [16] was > 100 µM (inactive).
In the case of `COc1ccccc1NC(=O)C1=C(C)NC(C)=C(C(=O)Nc2ccccc2OC)C1c1cccc2ccccc12`, the GI50 [17] was 23.8 µM (inactive), the GI50 [2] was 21.2 µM (inactive) and the GI50 [18] was 1.38 µM (inactive). For the same compound, the GI50 [3] was 83.8 µM (inactive), the GI50 [4] was 82.8 µM (inactive) and the GI50 [5] was 64 µM (inactive). The GI50 [6] was > 100 µM (inactive), the GI50 [7] was 34.4 µM (inactive) and the GI50 [8] was 11.7 µM (inactive). For the same compound, the GI50 [9] was 13.3 µM (inactive), the GI50 [10] was 62.7 µM (inactive) and the GI50 [11] was > 100 µM (inactive). The GI50 [12] was 50.7 µM (inactive), the GI50 [13] was 28.4 µM and the GI50 [14] was > 100 µM (inactive). For the same compound, the GI50 [15] was > 100 µM (inactive) and the GI50 [16] was 68.1 µM (inactive).
With `[N-]=[N+]=N[C@H]1C[C@@H](CO)O[C@H]1n1cnc2c(N)ncnc21` the GI50 [17] was > 100 µM (inactive), the GI50 [1] was > 100 µM (inactive) and the GI50 [18] was > 100 µM (inactive). For the same compound, the GI50 [3] was > 100 µM (inactive), the GI50 [4] was > 100 µM (inactive) and the GI50 [5] was > 100 µM (inactive). For the same compound, the GI50 [7] was > 100 µM (inactive), the GI50 [8] was > 100 µM (inactive) and the GI50 [10] was > 100 µM (inactive). The GI50 [11] was 57.4 µM (inactive), the GI50 [12] was > 100 µM (inactive) and the GI50 [14] was > 100 µM (inactive). For the same compound, the GI50 [15] was > 100 µM (inactive) and the GI50 [16] was > 100 µM (inactive).
